pEC50: −log10 of the molar value.

29 compounds from patent US8765730B2 (Hoffmann-La Roche Inc, priority 2010, dated 2014) can be followed below.

The target of this experiment is T1, human GPBAR1 receptor (Homo sapiens, UniProt Q8TDU6).
T1 construct: expressed in transfected cells
T1 sequence (Q8TDU6 1-330): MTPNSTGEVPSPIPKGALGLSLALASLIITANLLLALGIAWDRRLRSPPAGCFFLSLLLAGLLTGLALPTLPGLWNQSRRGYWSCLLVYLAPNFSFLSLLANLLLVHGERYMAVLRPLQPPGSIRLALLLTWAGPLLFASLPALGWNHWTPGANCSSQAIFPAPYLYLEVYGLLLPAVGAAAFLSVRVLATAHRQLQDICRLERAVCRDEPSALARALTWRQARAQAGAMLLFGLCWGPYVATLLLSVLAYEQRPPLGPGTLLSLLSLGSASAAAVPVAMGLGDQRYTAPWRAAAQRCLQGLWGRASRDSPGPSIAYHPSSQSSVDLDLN
The experiment can be described thus: functional cAMP assay in CHO-dhfr(minus) cells expressing human GPBAR1 receptors. In kind it is cell-based. The settings on record: human EC50, functional cAMP assay, 30 min at 30° C. As to the method:
The final clone was verified by DNA sequence analysis. The plasmid was transfected into CHO cells deficient in dihydrofolate reductase activity (CHO-dhfr−) using Lipofectamine plus (Invitrogen). Clones were isolated in limited dilution conditions and identified by activities in the cAMP assay using lithocholic acid as agonist.
The growth medium was exchanged with Krebs Ringer Bicarbonate buffer with 1 mM IBMX and incubated at 30° C. for 30 min. Compounds were added to a final assay volume of 100 μl and incubated for 30 min at 30° C. […] The time-resolved energy transfer is measured by a TRF reader (Evotec Technologies GmbH, Hamburg Germany), equipped with a ND:YAG laser as excitation source.
EC50 values were determined using Activity Base analysis (ID Business Solution, Limited). […] Specificity for GPBAR1 was tested in non-transfected CHO cells in the same assay as above.
Consider `Cc1cc(/C(C[C@H](c2ccc(N3CCS(=O)(=O)CC3)cc2)c2ccccc2C)=N/O)ccn1` [Example 271, (E,R)-3-[4-(1,1-Dioxo-1λ6-thiomorpholin-4-yl)-phenyl]-1-(2-methyl-pyridin-4-yl)-3-o-tolyl-propan-1-one oxime], for which the pEC50 is 7.96.
In turn, `Cc1cc(/C(=N/O)C(C)[C@H](c2ccc(Br)cc2)c2ccc(Cl)cc2C)ccn1` (stereo partly drawn) [Example 385, (3R,E)-3-(4-bromophenyl)-3-(4-chloro-2-methylphenyl)-2-methyl-1-(2-methylpyridin-4-yl)propan-1-one oxime] had a pEC50 of 6.16.
Consider `Cc1cc(Cl)ccc1C(C/C(=N\O)c1ccc(=O)n(C)c1)c1ccc(C(=O)O)cc1` (centres unmarked) [Example 361, 4-[1-(4-Chloro-2-methyl-phenyl)-3-[(E)-hydroxyimino]-3-(1-methyl-6-oxo-1,6-dihydro-pyridin-3-yl)-propyl]-benzoic acid], for which the pEC50 is 5.64.
Compound `Cc1cc(/C(C[C@H](c2ccc(C3CN(S(C)(=O)=O)C3)cc2)c2ccccc2C)=N/O)ccn1` [Example 484, (R,E)-1-(2-Methylpyridin-4-yl)-3-(4-(1-(methylsulfonyl)azetidin-3-yl)phenyl)-3-o-tolylpropan-1-one oxime] gave a pEC50 of 8.00.
With `Cc1cc(=O)n(C)cc1/C(CC(c1ccc(Br)cc1)c1ccccc1C)=N\O` (centres unmarked) [Example 200, 5-{3-(4-Bromo-phenyl)-1-[(Z)-hydroxyimino]-3-o-tolyl-propyl}-1,4-dimethyl-1H-pyridin-2-one] the figure was 6.25; with `C=CCC(C/C(=N\O)c1ccc(=O)n(C)c1)c1ccc(Br)cc1` (centres unmarked) [Example 176, 5-{3-(4-Bromo-phenyl)-1-[(E)-hydroxyimino]-hex-5-enyl}-1-methyl-1H-pyridin-2-one], 6.43.
Compound `Cc1ccccc1[C@@H](C/C(=N\O)c1ccc(=O)n(C)c1)c1ccc([C@H]2CC[C@@H](C(=O)O)CC2)cc1` [Example 489, cis-4-(4-((S,E)-3-(hydroxyimino)-3-(1-methyl-6-oxo-1,6-dihydropyridin-3-yl)-1-o-tolylpropyl)phenyl)cyclohexanecarboxylic acid] had a negative-log EC50 (pEC50) of 6.24.
Consider `Cc1cc(/C(C[C@@H](c2ccc(-c3ccc(C(=O)O)c(F)c3)cc2)c2ccc(Cl)cc2F)=N/O)ccn1` (single isomer, unassigned) [Example 449, 4′-[(+)-1-(4-Chloro-2-fluoro-phenyl)-3-[(E)-hydroxyimino]-3-(2-methyl-pyridin-4-yl)-propyl]-3-fluoro-biphenyl-4-carboxylic acid], for which the pEC50 was 8.05.
As for `Cc1cc(Cl)ccc1C(C/C(=N\O)c1ccc(=O)n(C)c1)c1ccc(C(=O)NC[C@@H](O)CO)cc1` (stereo partly drawn) [Example 335, 4-((E)-1-(4-Chloro-2-methylphenyl)-3-(hydroxyimino)-3-(1-methyl-6-oxo-1,6-dihydropyridin-3-yl)propyl)-N—((R)-2,3-dihydroxypropyl)benzamide], the pEC50 is 6.95.
As to `CCCC(C/C(=N\O)c1ccc(=O)n(C)c1)c1ccc(Br)cc1F` (centres unmarked) [Example 191, 5-{3-(4-Bromo-2-fluoro-phenyl)-1-[(E)-hydroxyimino]-hexyl}-1-methyl-1H-pyridin-2-one], the pEC50 is 6.43.
On to `Cc1cc(/C(CC(c2ccc(-c3ccc(C(=O)O)cc3)cc2)c2ccc(F)cc2C)=N/O)ccn1` (centres unmarked) [Example 141, (E)-4′-(1-(4-Fluoro-2-methylphenyl)-3-(hydroxyimino)-3-(2-methylpyridin-4-yl)propyl)biphenyl-4-carboxylic acid], for which the pEC50 was 8.10.
For `Cc1ccccc1[C@H](C/C(=N\O)c1ccnc(C(F)(F)F)c1)c1ccc(-c2ccc(C(=O)O)cc2)cc1` [Example 291, 4′-[(R)-3-[(E)-Hydroxyimino]-1-o-tolyl-3-(2-trifluoromethyl-pyridin-4-yl)-propyl]-biphenyl-4-carboxylic acid] the value was 6.44; for `Cc1cc(/C(C[C@H](c2ccc(N3CCC(CO)CC3)cc2)c2ccccc2C)=N/O)ccn1` [Example 269, (E,R)-3-[4-(4-Hydroxymethyl-piperidin-1-yl)-phenyl]-1-(2-methyl-pyridin-4-yl)-3-o-tolyl-propan-1-one oxime], 8.70.
Compound `Cc1cc(C(=O)O)ccc1-c1ccc(C(C/C(=N\O)c2ccc(=O)n(C)c2)c2ccc(Cl)cc2Cl)cc1` (single isomer, unassigned) [Example 478, 4′-[(+)-1-(2,4-dichloro-phenyl)-3-[(E)-hydroxyimino]-3-(1-methyl-6-oxo-1,6-dihydro-pyridin-3-yl)-propyl]-2-methyl-biphenyl-4-carboxylic acid] gave a pEC50 of 6.43.
Consider `Cc1cc(Cl)ccc1C(C/C(=N\O)c1ccc(=O)n(C)c1)c1ccc(Oc2ccc(Cl)c(C(=O)O)c2)cc1` (centres unmarked) [Example 347, 2-Chloro-5-{4-[1-(4-chloro-2-methyl-phenyl)-3-[(E)-hydroxyimino]-3-(1-methyl-6-oxo-1,6-dihydro-pyridin-3-yl)-propyl]-phenoxy}-benzoic acid], for which the pEC50 was 6.92.
As for `Cc1cc(Cl)ccc1C(C/C(=N\O)c1ccc(=O)n(C)c1)c1ccc(Oc2ccc(F)c(C(=O)O)c2)cc1` (centres unmarked) [Example 348, 5-{4-[1-(4-Chloro-2-methyl-phenyl)-3-[(E)-hydroxyimino]-3-(1-methyl-6-oxo-1,6-dihydro-pyridin-3-yl)-propyl]-phenoxy}-2-fluoro-benzoic acid], the pEC50 was 7.15.
As to `Cc1cc(C(CC(c2cccc(C#CCO)c2)c2ccccc2C)=NO)ccn1` (racemic) [Example 106, 3-[3-(3-Hydroxy-prop-1-ynyl)-phenyl]-1-(2-methyl-pyridin-4-yl)-3-o-tolyl-propan-1-one oxime], the negative-log EC50 (pEC50) was 6.59.
With `COc1ccc(C2(C/C(=N\O)c3ccnc(C)c3)CCCCC2)cc1` [Example 158, (E)-2-[1-(4-Methoxy-phenyl)-cyclohexyl]-1-(2-methyl-pyridin-4-yl)-ethanone oxime] the figure was 5.99; with `Cc1cc(/C(C[C@H](c2ccc(-c3nnc(C4CCOCC4)o3)cc2)c2ccccc2C)=N/O)ccn1` [Example 421, ((−), E)-1-(2-Methyl-pyridin-4-yl)-3-{4-[5-(tetrahydro-pyran-4-yl)-[1,3,4]oxadiazol-2-yl]-phenyl}-3-o-tolyl-propan-1-one oxime], 7.52; with `Cc1cc(C(CC(c2ccc(CCCCC(=O)O)cc2)c2ccccc2C)=NO)ccn1` (racemic) [Example 115, 5-{4-[3-[Hydroxyimino]-3-(2-methyl-pyridin-4-yl)-1-o-tolyl-propyl]-phenyl}-pentanoic acid], 7.39.
For `Cc1ccccc1C(CC(=NO)c1ccncc1)c1cccc(-c2cccc(S(C)(=O)=O)c2)c1` (racemic) [Example 30, 3-(3′-Methanesulfonyl-biphenyl-3-yl)-1-pyridin-4-yl-3-o-tolyl-propan-1-one oxime] the value was 6.74.
With `Cc1ccccc1C(CC(=NO)c1ccc2ncccc2c1)c1ccc(Br)cc1` (racemic) [Example 125, 3-(4-Bromo-phenyl)-1-quinolin-6-yl-3-o-tolyl-propan-1-one oxime], the pEC50 is 5.66.
For `Cc1cc(Cl)ccc1C(C/C(=N\O)c1ccc(=O)n(C)c1)c1ccc(Oc2cccc(C(=O)O)c2)c(F)c1` (centres unmarked) [Example 325, 3-{4-[1-(4-Chloro-2-methyl-phenyl)-3-[(E)-hydroxyimino]-3-(1-methyl-6-oxo-1,6-dihydro-pyridin-3-yl)-propyl]-2-fluoro-phenoxy}-benzoic acid] the value was 6.98; for `Cc1ccccc1[C@H](C/C(=N\O)c1ccc(=O)n(C)c1)c1ccc(CC(=O)O)cc1` [Example 493, (R,E)-2-(4-(3-(Hydroxyimino)-3-(1-methyl-6-oxo-1,6-dihydropyridin-3-yl)-1-o-tolylpropyl)phenyl)acetic acid], 6.18.
On to `Cc1ccccc1[C@H](C/C(=N\O)c1ccc(=O)n(C)c1)c1ccc(C#N)cc1` [Example 498, (R,E)-4-(3-(Hydroxyimino)-3-(1-methyl-6-oxo-1,6-dihydropyridin-3-yl)-1-o-tolylpropyl)benzonitrile], for which the pEC50 was 8.15.
`Cn1cc(/C(CC(Cc2ccc(OC(F)(F)F)cc2)c2ccc(Br)cc2)=N/O)ccc1=O` (centres unmarked) [Example 180, 5-[3-(4-Bromo-phenyl)-1-[(E)-hydroxyimino]-4-(4-trifluoromethoxy-phenyl)-butyl]-1-methyl-1H-pyridin-2-one] gave a pEC50 of 5.46.
Consider `Cc1cc(F)ccc1C(C/C(=N\O)c1ccc(=O)n(C)c1)c1ccc(-c2ccc(NC(=O)CCC(=O)O)cc2)cc1` (centres unmarked) [Example 392, N-{4′-[1-(4-Fluoro-2-methyl-phenyl)-3-[(E)-hydroxyimino]-3-(1-methyl-6-oxo-1,6-dihydro-pyridin-3-yl)-propyl]-biphenyl-4-yl}-succinamic acid], for which the pEC50 was 7.27.
With `CC(=O)N1CC(c2ccc([C@@H](C/C(=N\O)c3ccnc(C)c3)c3ccccc3C)cc2)C1` [Example 483] the figure was 7.51.
Compound `Cc1cc(/C(CC(c2cccc(-c3ccc(C(=O)O)cc3)c2)c2ccccc2C)=N/O)ccn1` (centres unmarked) [Example 103, (E)-3′-[3-[Hydroxyimino]-3-(2-methyl-pyridin-4-yl)-1-o-tolyl-propyl]-biphenyl-4-carboxylic acid] had a pEC50 of 6.23.
